Source: patent US20150005288A1, “SUBSTITUTED PHENYLIMIDAZOPYRAZOLES AND USE THEREOF” (Bayer Intellectual Property GmbH, priority 2012, published 2015)

Molecular target: T1, intracellular domain of human Tie2 (GST fusion protein) (Homo sapiens, UniProt Q02763)
T1 construct: intracellular domain of human Tie2 (amino acids 776-1124); made in house; host or cells: Baculovirus-infected insect cells (Hi5)
Test: Tie2 kinase assay (Tie2-TR-FRET)
Format: biochemical
Conditions: ATP concentration 1 mM, in some cases means of several independent determinations
In short: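 High ATP (1 mM final) with 1 μM biotin-peptide substrate; reaction 60 min at 22 °C after 15 min compound pre-binding to GST-Tie2 (aa 776-1124) in HEPES pH 7 with Mg/Mn. Phosphopeptide detected by TR-FRET emission ratio 665/620 nm. IC50 from 4-parameter fit over 20 μM to 0.073 nM, duplicates.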

T1 sequence (Q02763 776-1124): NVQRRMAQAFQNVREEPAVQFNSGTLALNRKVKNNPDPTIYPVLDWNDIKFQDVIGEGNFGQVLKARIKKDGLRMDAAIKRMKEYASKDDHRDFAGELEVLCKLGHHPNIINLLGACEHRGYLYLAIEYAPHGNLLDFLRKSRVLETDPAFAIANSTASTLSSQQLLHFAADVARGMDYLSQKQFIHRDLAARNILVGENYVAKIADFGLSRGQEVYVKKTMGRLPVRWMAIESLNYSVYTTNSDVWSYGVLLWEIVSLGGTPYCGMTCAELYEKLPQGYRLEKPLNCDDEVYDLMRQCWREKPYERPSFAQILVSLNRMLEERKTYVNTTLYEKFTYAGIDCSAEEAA

Row | Compound | IC50
1 | Cc1ccc(-n2ccn3nc(-c4cccnc4)cc23)cc1NC(=O)c1cccc(S(F)(F)(F)(F)F)c1 [Example 76, N-{2-Methyl-5-[6-(pyridin-3-yl)-1H-imidazo[1,2-b]pyrazol-1-yl]phenyl}-3-(pentafluoro-λ^6-sulphanyl)benzamide] | 82 nM
2 | Cc1ccc(-n2ccn3nc(-c4cccnc4)cc23)cc1NC(=O)c1cc(Br)cc(C(C)(C)C)c1 [Example 78] | 115 nM
3 | Cc1ccc(-n2ccn3nc(-c4cccnc4)cc23)cc1NC(=O)c1cc(C#N)cc(C(C)(C)C)c1 [Example 79] | 26 nM
4 | Cc1c(NC(=O)c2cc(C#N)cc(S(F)(F)(F)(F)F)c2)cccc1-n1ccn2nc(-c3cccnc3)cc12 [Example 80, 3-Cyano-N-{2-methyl-3-[6-(pyridin-3-yl)-1H-imidazo[1,2-b]pyrazol-1-yl]phenyl}-5-(pentafluoro-λ^6-sulphanyl)benzamide] | 725 nM
5 | N#Cc1cc(C(=O)Nc2cccc(-n3ccn4nc(-c5cccnc5)cc34)c2F)cc(S(F)(F)(F)(F)F)c1 [Example 81, 3-Cyano-N-{2-fluoro-3-[6-(pyridin-3-yl)-1H-imidazo[1,2-b]pyrazol-1-yl]phenyl}-5-(pentafluoro-λ^6-sulphanyl)benzamide] | 435 nM
6 | O=C(Nc1cccc(-n2ccn3nc(-c4cccnc4)cc23)c1O)c1cccc(S(F)(F)(F)(F)F)c1 [Example 82, N-{2-Hydroxy-3-[6-(pyridin-3-yl)-1H-imidazo[1,2-b]pyrazol-1-yl]phenyl}-3-(pentafluoro-λ^6-sulphanyl)benzamide] | 250 nM
7 | N#Cc1cc(C(=O)Nc2cccc(-n3ccn4nc(-c5cccnc5)cc34)c2O)cc(S(F)(F)(F)(F)F)c1 [Example 83, 3-Cyano-N-{2-hydroxy-3-[6-(pyridin-3-yl)-1H-imidazo[1,2-b]pyrazol-1-yl]phenyl}-5-(pentafluoro-λ^6-sulphanyl)benzamide] | 110 nM
8 | Cc1ccc(NC(=O)c2cccc(S(F)(F)(F)(F)F)c2)cc1-n1ccn2nc(-c3cnccn3)cc12 [Example 84, N-{4-Methyl-3-[6-(pyrazin-2-yl)-1H-imidazo[1,2-b]pyrazol-1-yl]phenyl}-3-(pentafluoro-λ^6-sulphanyl)benzamide] | 220 nM
9 | Cc1cc(C)c(-n2ccn3nc(-c4cn[nH]c4)cc23)cc1NC(=O)c1cc(C#N)cc(S(F)(F)(F)(F)F)c1 [Example 86, 3-Cyano-N-{2,4-dimethyl-5-[6-(1H-pyrazol-4-yl)-1H-imidazo[1,2-b]pyrazol-1-yl]phenyl}-5-(pentafluoro-λ^6-sulphanyl)benzamide] | 1.1 nM
10 | N#Cc1cc(C(=O)Nc2cccc(-n3ccn4nc(-c5cccnc5)cc34)c2)cc(S(F)(F)(F)(F)F)c1 [Example 87, 3-Cyano-5-(pentafluoro-λ^6-sulphanyl)-N-{3-[6-(pyridin-3-yl)-1H-imidazo[1,2-b]pyrazol-1-yl]-phenyl}benzamide] | 980 nM
11 | Cc1ccc(NC(=O)c2cc(Br)cc(S(F)(F)(F)(F)F)c2)cc1-n1ccn2nc(-c3cccnc3)cc12 [Example 89, 3-Bromo-N-{4-methyl-3-[6-(pyridin-3-yl)-1H-imidazo[1,2-b]pyrazol-1-yl]phenyl}-5-(pentafluoro-λ^6-sulphanyl)benzamide] | 2.3 nM
12 | COc1ccc(S(F)(F)(F)(F)F)cc1C(=O)Nc1ccc(C)c(-n2ccn3nc(-c4cccnc4)cc23)c1 [Example 90, 2-Methoxy-N-{4-methyl-3-[6-(pyridin-3-yl)-1H-imidazo[1,2-b]pyrazol-1-yl]phenyl}-5-(pentafluoro-λ^6-sulphanyl)benzamide] | 91 nM
13 | Cc1ccc(S(F)(F)(F)(F)F)cc1C(=O)Nc1ccc(C)c(-n2ccn3nc(-c4cccnc4)cc23)c1 [Example 91, 2-Methyl-N-{4-methyl-3-[6-(pyridin-3-yl)-1H-imidazo[1,2-b]pyrazol-1-yl]phenyl}-5-(pentafluoro-λ^6-sulphanyl)benzamide] | 215 nM
14 | Cc1ccc(NC(=O)c2cc(C#N)cc(C3(O)CCC3)c2)cc1-n1ccn2nc(-c3cccnc3)cc12 [Example 92, 3-Cyano-5-(1-hydroxycyclobutyl)-N-{4-methyl-3-[6-(pyridin-3-yl)-1H-imidazo[1,2-b]pyrazol-1-yl]phenyl}benzamide] | 29 nM
15 | Cc1ccc(NC(=O)c2cc(C#N)nc(C(C)(C)C)c2)cc1-n1ccn2nc(-c3cccnc3)cc12 [Example 93, 2-tert-Butyl-6-cyano-N-{4-methyl-3-[6-(pyridin-3-yl)-1H-imidazo[1,2-b]pyrazol-1-yl]phenyl}-isonicotinamide] | 19 nM
16 | N#Cc1cc(C(=O)Nc2ccc(C(F)(F)F)c(-n3ccn4nc(-c5cccnc5)cc34)c2)cc(S(F)(F)(F)(F)F)c1 [Example 95, 3-Cyano-5-(pentafluoro-λ^6-sulphanyl)-N-{3-[6-(pyridin-3-yl)-1H-imidazo[1,2-b]pyrazol-1-yl]-4-(trifluoromethyl)phenyl}benzamide] | 350 nM

Row | Compound | IC50
17 | O=C(Nc1ccc(Cl)c(-n2ccn3nc(-c4cccnc4)cc23)c1)c1cccc(S(F)(F)(F)(F)F)c1 [Example 96, N-{4-Chloro-3-[6-(pyridin-3-yl)-1H-imidazo[1,2-b]pyrazol-1-yl]phenyl}-3-(pentafluoro-λ^6-sulphanyl)benzamide] | 47 nM
18 | N#Cc1cc(C(=O)Nc2ccc(Cl)c(-n3ccn4nc(-c5cccnc5)cc34)c2)cc(S(F)(F)(F)(F)F)c1 [Example 97, N-{4-Chloro-3-[6-(pyridin-3-yl)-1H-imidazo[1,2-b]pyrazol-1-yl]phenyl}-3-cyano-5-(pentafluoro-λ^6-sulphanyl)benzamide] | 9.2 nM
19 | COc1ccc(NC(=O)c2cc(Br)cc(S(F)(F)(F)(F)F)c2)cc1-n1ccn2nc(-c3cccnc3)cc12 [Example 98, 3-Bromo-N-{4-methoxy-3-[6-(pyridin-3-yl)-1H-imidazo[1,2-b]pyrazol-1-yl]phenyl}-5-(pentafluoro-λ^6-sulphanyl)benzamide] | 595 nM
20 | COc1ccc(NC(=O)c2cc(C#N)cc(S(F)(F)(F)(F)F)c2)cc1-n1ccn2nc(-c3cccnc3)cc12 [Example 99, 3-Cyano-N-{4-methoxy-3-[6-(pyridin-3-yl)-1H-imidazo[1,2-b]pyrazol-1-yl]phenyl}-5-(pentafluoro-λ^6-sulphanyl)benzamide] | 240 nM
21 | Cc1cc(NC(=O)c2cccc(S(F)(F)(F)(F)F)c2)cc(-n2ccn3nc(-c4cccnc4)cc23)c1C [Example 100, N-{3,4-Dimethyl-5-[6-(pyridin-3-yl)-1H-imidazo[1,2-b]pyrazol-1-yl]phenyl}-3-(pentafluoro-λ^6-sulphanyl)benzamide] | 175 nM
22 | Cc1c(F)cc(NC(=O)c2cccc(S(F)(F)(F)(F)F)c2)cc1-n1ccn2nc(-c3cccnc3)cc12 [Example 103, N-{3-Fluoro-4-methyl-5-[6-(pyridin-3-yl)-1H-imidazo[1,2-b]pyrazol-1-yl]phenyl}-3-(pentafluoro-λ^6-sulphanyl)benzamide] | 130 nM
23 | Cc1c(F)cc(NC(=O)c2cc(C#N)cc(S(F)(F)(F)(F)F)c2)cc1-n1ccn2nc(-c3cccnc3)cc12 [Example 105, 3-Cyano-N-{3-fluoro-4-methyl-5-[6-(pyridin-3-yl)-1H-imidazo[1,2-b]pyrazol-1-yl]phenyl}-5-(pentafluoro-λ^6-sulphanyl)benzamide] | 39 nM
24 | Cc1c(Cl)cc(NC(=O)c2cccc(S(F)(F)(F)(F)F)c2)cc1-n1ccn2nc(-c3cccnc3)cc12 [Example 106, N-{3-Chloro-4-methyl-5-[6-(pyridin-3-yl)-1H-imidazo[1,2-b]pyrazol-1-yl]phenyl}-3-(pentafluoro-λ^6-sulphanyl)benzamide] | 110 nM
25 | Cc1cc(C)c(-n2ccn3nc(-c4cccnc4)cc23)cc1NC(=O)c1cc(Cl)cc(S(F)(F)(F)(F)F)c1 [Example 108, 3-Chloro-N-{2,4-dimethyl-5-[6-(pyridin-3-yl)-1H-imidazo[1,2-b]pyrazol-1-yl]phenyl}-5-(pentafluoro-λ^6-sulphanyl)benzamide] | 0.7 nM
26 | Cc1cc(C)c(-n2ccn3nc(-c4cccnc4)cc23)cc1NC(=O)c1cc(Br)cc(S(F)(F)(F)(F)F)c1 [Example 109, 3-Bromo-N-{2,4-dimethyl-5-[6-(pyridin-3-yl)-1H-imidazo[1,2-b]pyrazol-1-yl]phenyl}-5-(pentafluoro-λ^6-sulphanyl)benzamide] | 0.5 nM
27 | Cc1cc(C)c(-n2ccn3nc(-c4cccnc4)cc23)cc1NC(=O)c1cc(C(=O)O)cc(S(F)(F)(F)(F)F)c1 [Example 110, 3-({2,4-Dimethyl-5-[6-(pyridin-3-yl)-1H-imidazo[1,2-b]pyrazol-1-yl]phenyl}carbamoyl)-5-(pentafluoro-λ^6-sulphanyl)benzoic acid] | 5 nM
28 | Cc1cc(C(=O)Nc2cc(-n3ccn4nc(-c5cccnc5)cc34)c(C)cc2C)cc(S(F)(F)(F)(F)F)c1 [Example 111, N-{2,4-Dimethyl-5-[6-(pyridin-3-yl)-1H-imidazo[1,2-b]pyrazol-1-yl]phenyl}-3-methyl-5-(pentafluoro-λ^6-sulphanyl)benzamide] | 0.7 nM
29 | Cc1cc(C)c(-n2ccn3nc(-c4cccnc4)cc23)cc1NC(=O)c1cc(Br)cc(C(C)(C)C)c1 [Example 113, 3-Bromo-5-tert-butyl-N-{2,4-dimethyl-5-[6-(pyridin-3-yl)-1H-imidazo[1,2-b]pyrazol-1-yl]-phenyl}benzamide] | 0.6 nM
30 | Cc1cc(C)c(-n2ccn3nc(-c4cccnc4)cc23)cc1NC(=O)c1cc(C#N)cc(C(C)(C)C)c1 [Example 114, 3-tert-Butyl-5-cyano-N-{2,4-dimethyl-5-[6-(pyridin-3-yl)-1H-imidazo[1,2-b]pyrazol-1-yl]phenyl}-benzamide] | 0.3 nM
31 | Cc1cc(C)c(-n2ccn3nc(-c4cccnc4)cc23)cc1NC(=O)c1cc(Cl)nc(C(C)(C)C)c1 [Example 115, 2-tert-Butyl-6-chloro-N-{2,4-dimethyl-5-[6-(pyridin-3-yl)-1H-imidazo[1,2-b]pyrazol-1-yl]-phenyl}isonicotinamide] | 0.8 nM
